The values below come from publication PMC12123458, “Unraveling Small Molecule-Mediated Sirtuin 3 Activation at a Distinct Binding Site for Cardioprotective Therapies” (ACS Central Science, 2025).

One data set relates to H9c2 cells. The experiment in a line: Intracellular ROS (DCFH-DA) and mitochondrial membrane potential (JC-1) in Dox-treated H9c2 cells. In kind it is cell-based. As for the experimental part: Mitochondrial membrane potential and reactive oxygen species (ROS) levels within cells were assessed using the JC-1 Mitochondrial Membrane Potential Assay Kit (Beyotime, Beijing, China) and the DCFH-DA probe (Beyotime, Shanghai, China), respectively, following the manufacturer’s guidelines. , For mitochondrial membrane potential quantification, cells were treated with JC-1 solution and incubated for 20 min at 37 °C in the dark. ROS quantification involved a 25 min incubation at 37 °C in the dark with DCFH-DA solution. Postincubation, cells underwent three gentle washes with prewarmed buffer. Visualization was achieved using a Nikon (Ni-E) fluorescence microscope and quantified by flow cytometry (BD FACS Calibur).

Another data set addresses T1, SIRT3 L298G mutant (Homo sapiens, UniProt Q9NTG7, L298G).
T1 construct: made in house
T1 sequence (Q9NTG7 1-399 L298G): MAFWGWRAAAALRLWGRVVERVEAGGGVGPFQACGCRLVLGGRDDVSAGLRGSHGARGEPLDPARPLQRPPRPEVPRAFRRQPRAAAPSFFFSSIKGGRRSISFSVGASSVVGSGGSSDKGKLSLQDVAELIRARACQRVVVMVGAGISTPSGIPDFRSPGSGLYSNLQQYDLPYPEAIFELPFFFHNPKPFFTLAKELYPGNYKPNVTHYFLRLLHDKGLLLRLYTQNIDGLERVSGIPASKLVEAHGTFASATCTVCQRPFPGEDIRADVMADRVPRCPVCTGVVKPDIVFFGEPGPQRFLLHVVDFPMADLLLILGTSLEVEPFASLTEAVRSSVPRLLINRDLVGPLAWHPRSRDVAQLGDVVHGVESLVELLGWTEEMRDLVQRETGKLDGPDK
Description: BLI binding of SKLB-11A to mutant SIRT3 (L298G). The note with it: read-out: dissociation constant, L298G mutant SIRT3. As for the experimental part: SIRT3 protein at a concentration of 10 mg/mL was incubated with SKLB-11A (200 mM) in a mole ratio of 1:5 on ice for 1–3 h. The mixture was then centrifuged at 4 °C for 10 min, and the supernatant was used for crystallization. The precipitant solution consisted of 0.2 M Li2SO4, 1.0 M (NH4)2SO4, and 0.1 M Tris, at pH 7.5. Crystals emerged after approximately 3 days at 16 °C on a sitting-drop plate. The crystals were subsequently transferred to a cryoprotectant solution containing 20% glycerol and were flash-cooled in a nitrogen gas stream at 100 K for synchrotron radiation X-ray diffraction data collection. Site-directed mutagenesis. L298G Primer forward: 5′-[…]-GAACCGggc[…][…]-3′; reverse: 5′-gccCGGTT[…]-AAAACGA-3′; Site-directed mutagenesis was conducted using 2 x Phanta Flash Master Mix (Vazyme, P510). The mutated plasmid was sequenced by Sangon Biotech (Shanghai, China).
Binding kinetics of SIRT3 with various compounds were quantified using SSA biosensors on an Octet Red96 system (ForteBio). The assays occurred in 96-well plates, recording wavelength shifts in real-time. Ambient temperature was maintained at 25 °C, with plate agitation at 1000 rpm, and a reaction volume of 200 μL per well. SIRT3 protein and test compounds were prepared in phosphate-buffered saline (PBS, pH 7.4). […]

Data set [1] concerns Dox-induced cardiotoxicity model. The experiment in a line: Mouse model of doxorubicin-induced cardiomyopathy. In kind it is in vivo. As for the experimental part:
For the establishment of the experimental model, male C57BL/6J mice aged 8 weeks, with an average weight of 23 g, were utilized. The mice were administered varying dosages of SKLB-11A (10 and 20 mg/kg/day) or a corresponding volume of sterile saline via oral gavage over a period of 7 days. […] The sample size for each group consisted of eight specimens. Echocardiographic assessments were conducted at three distinct time points: baseline (day 0), post-treatment (day 7), and at the conclusion of the study (day 21). The experimental timeline was terminated on day 21.
Noninvasive transthoracic echocardiography was performed using a Vevo 3100 System with a 30-MHz transducer to assess cardiac function in mice. The procedure was conducted by an experienced technician who was blinded to the study groups. Mice were anesthetized with 1.5–2% isoflurane and underwent skin preparation. Two-dimensional guided M-mode echocardiography in the short axis view was used to measure left ventricular fractional shortening (FS) and left ventricular ejection fraction (EF).
H&E staining was used to evaluate pathological changes in key organs. Fixed tissues were dehydrated, embedded in paraffin, and sectioned into 4 μm slices. The sections were stained with hematoxylin for 10–15 min, washed with tap water for 2 min, differentiated for 30 s using hydrochloric acid and ethanol, and then washed with warm water for 5 min. After staining with eosin for 2 min, the sections were dehydrated and mounted with resin. All procedures followed the standard operating procedure (SOP) for pathological examination.

For data set [2], the system named is acetylated MnSOD (K68 and K122) in H9c2 cells. Description: Western blot of MnSOD, SIRT3 and acetylated MnSOD in H9c2 cells. In kind it is cell-based. The note with it: 24 h. As for the experimental part:
Proteomic analysis was conducted on H9c2 cells and murine cardiac tissues. Protein lysates were resolved via SDS-PAGE and transferred onto PVDF membranes. […] After washing, membranes were probed with secondary antibodies for 1 h at room temperature. Detection was facilitated by an ECL kit, with densitometry performed using ImageJ software to quantify protein expression, normalized against controls. The antibodies employed included: anti-SIRT3 (2627, Cell Signaling Technology), anti-acetylated lysine (9441, CST), anti-Ac.K68-MnSOD2 (ab137037, Abcam), anti-Ac.K122-MnSOD2 (ab214675, Abcam), anti-MnSOD2 (13141, CST), anti-LC3B (3868, CST), anti-p62 (8025, CST), anti-PINK1 (6946, CST), anti-Parkin (4211, CST), and anti-β-actin (ab8226, Abcam).

Another data set deals with T2, SIRT5 (Rattus norvegicus, UniProt Q68FX9).
T2 construct: endogenous in cells; host or cells: H9c2
T2 sequence (Q68FX9 37-310): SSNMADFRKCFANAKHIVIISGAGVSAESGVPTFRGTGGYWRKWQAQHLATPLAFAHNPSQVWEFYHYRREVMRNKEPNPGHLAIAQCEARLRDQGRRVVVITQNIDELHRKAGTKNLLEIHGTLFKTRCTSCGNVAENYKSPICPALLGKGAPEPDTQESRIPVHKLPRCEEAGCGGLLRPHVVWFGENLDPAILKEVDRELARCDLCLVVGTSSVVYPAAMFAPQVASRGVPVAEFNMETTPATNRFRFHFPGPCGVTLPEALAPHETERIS
Description: CETSA of SIRT5 in H9c2 cells. In kind it is cell-based.

As for `COC(=O)c1c(N)n(Cc2ccc(F)cc2)c2nc3ccccc3nc12` [SKLB-11A, Methyl 2-amino-1-(4-fluorobenzyl)-1H-pyrrolo[2,3-b]quinoxaline-3-carboxylate], in the data set on H9c2 cells (JC-1), the “Dox-induced dissipation of mitochondrial membrane potential (MMP)” value is on record as “notably preserved”. Also, the “Dox-induced increase of ROS levels” value in the data set with H9c2 cells (pretreatment, DCFH-DA) is recorded as “effectively suppressed this increase”. Also, at SIRT3 L298G mutant, the Kd came to 167 µM. For the same compound, the “left ventricular ejection fraction (EF) and fractional shortening (FS)” value in data set [1] (10 or 20 mg/kg, ig, pretreatment, Dox mice, dose-dependent) is given as “significantly restored”. For the same compound, in data set [1] (Dox mice), the “body weight (Dox-induced weight loss)” value is reported as “partially reversed Dox-induced weight loss”; the “mitochondrial respiration (basal and maximal) in heart tissues” value is “restored mitochondrial respiration”; the “serum markers of myocardial injury LDH, CK-MB, BNP” value is on record as “reduced serum markers of myocardial injury”. In addition, the “myocardial structure, histology” value in data set [1] (Dox mice, H&E) is on record as “preserved myocardial structure”. Also, the “toxicity at effective doses, organ histology (heart, liver, spleen, lungs, kidneys)” value in data set [1] (mice, H&E) was “no apparent toxicity”. In data set [2], the SIRT3 protein levels entry is listed as “did not alter SIRT3 protein levels”; the “deacetylation of MnSOD at K122 and K68” value is “induced deacetylation at K122 and K68”. Besides, the “thermal stability of SIRT5 (CETSA)” value on SIRT5 is given as “little effect on the thermal stability”.
